One test addresses GSK3β (H350L) (Homo sapiens (Human), UniProt P49841). Particulars: read-out: GSK3β Ki.
For test [1], the target named is CDK2/Cyclin E1 full length (Homo sapiens (Human), UniProt P24941). Description: CDK2/Cyclin E1 full length mobility shift assay. It is filed as biochemical.
Procedure: Cdk2/Cyclin E1 Full Length Mobility Shift Assay
Wild-type CDK2/wild-type full length Cyclin E1 enzyme complex was produced in-house (baculoviral expression, LJIC-2080/LJIC-2103) and phosphorylated by CDK7/Cyclin H1/Matl enzyme complex with CDK2:CDK7 ratio of 50:1 (concentration mg/mL) in the presence of 10 mM MgCl2 and 5 mM ATP at room temperature for one hour. […] The assay was initiated with the addition of ATP, following a fifteen minutes pre-incubation of enzyme and inhibitor at room temperature in the reaction mixture. The reaction was stopped after 45 minutes at room temperature by the addition of 50 μL of 80 mM EDTA.

Chain of GSK3β (H350L) (P49841 whole entry, stated change not applied): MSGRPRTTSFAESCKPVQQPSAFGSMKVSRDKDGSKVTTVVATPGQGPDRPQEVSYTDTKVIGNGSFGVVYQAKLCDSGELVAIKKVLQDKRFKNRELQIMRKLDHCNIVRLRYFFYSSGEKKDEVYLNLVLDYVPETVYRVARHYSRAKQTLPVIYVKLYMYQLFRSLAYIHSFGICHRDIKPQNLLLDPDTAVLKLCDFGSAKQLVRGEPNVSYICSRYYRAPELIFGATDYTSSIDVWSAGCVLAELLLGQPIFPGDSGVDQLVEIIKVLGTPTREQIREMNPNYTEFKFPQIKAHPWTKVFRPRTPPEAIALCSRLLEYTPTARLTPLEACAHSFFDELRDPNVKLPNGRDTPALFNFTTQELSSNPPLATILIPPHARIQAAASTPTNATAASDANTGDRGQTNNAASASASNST
Procedure for GSK3β (H350L): The assay was initiated with the addition of ATP, following 15 minutes pre-incubation of enzyme and inhibitor at room temperature in the reaction mixture. The reaction was stopped after 30 minutes at room temperature by the addition of 50 μL of 80 mM EDTA.

As for `CCCNC(=O)O[C@@H]1CC[C@H](c2cc(NC(=O)Cc3ccc(OC)cn3)n[nH]2)C1` (stereo in doubt) [Example 187, (1R,3S)-3-(3-{[(5-methoxypyridin-2-yl)acetyl]amino}-1H-pyrazol-5-yl)cyclopentyl propylcarbamate], the Ki worked out at 23.9 nM at GSK3β (H350L) and 4.59 nM in test [1]. On the same counts, the results for `CCNC(=O)O[C@@H]1CC[C@H](c2cc(NC(=O)Cc3ccc4c(cnn4C)c3)n[nH]2)C1` [Example 3, (1R,3S)-3-(3-{[(1-methyl-1H-indazol-5-yl)acetyl]amino}-1H-pyrazol-5-yl)cyclopentyl ethylcarbamate] are 10 nM and 0.34 nM. On the same counts, the results for `CC[C@H](C)NC(=O)O[C@@H]1CC[C@H](c2cc(NC(=O)c3cnnn3C)n[nH]2)C1` [Example 4, (1R,3S)-3-(3-{[(1-methyl-1H-1,2,3-triazol-5-yl)carbonyl]amino}-1H-pyrazol-5-yl)cyclopentyl (2S)-butan-2-ylcarbamate] are 110 nM and 0.1 nM. Taken in the same sequence, the figures for `Cc1cnc(CC(=O)Nc2cc([C@H]3CC[C@@H](OC(=O)NC4(C)CC4)C3)[nH]n2)o1` [Example 5, (1R,3S)-3-(3-{[(5-methyl-1,3-oxazol-2-yl)acetyl]amino}-1H-pyrazol-5-yl)cyclopentyl (1-methylcyclopropyl)carbamate] were 39.4 nM and 0.4 nM. As for `Cc1cnc(CC(=O)Nc2cc([C@H]3CC[C@@H](OC(=O)NC(C)(C)C)C3)[nH]n2)o1` [Example 11, (1R,3S)-3-(3-{[(5-methyl-1,3-oxazol-2-yl)acetyl]amino}-1H-pyrazol-5-yl)cyclopentyl tert-butylcarbamate], the results for the inhibition constant Ki (at GSK3β (H350L); in test [1]) were 36.2 nM and 0.32 nM, respectively. With `Cc1cc(CC(=O)Nc2cc([C@H]3CC[C@@H](OC(=O)N4CCC4(C)C)C3)[nH]n2)on1` [Example 12, (1R,3S)-3-(3-{[(3-methyl-1,2-oxazol-5-yl)acetyl]amino}-1H-pyrazol-5-yl)cyclopentyl 2,2-dimethylazetidine-1-carboxylate], the inhibition constant Ki was 4.86 nM at GSK3β (H350L) and 0.13 nM in test [1]. `CC[C@H](C)NC(=O)O[C@@H]1CC[C@H](c2cc(NC(=O)c3cc(COC)nn3C)n[nH]2)C1` [Example 14, (1R,3S)-3-[3-({[3-(methoxymethyl)-1-methyl-1H-pyrazol-5-yl]carbonyl}amino)-1H-pyrazol-5-yl]cyclopentyl (2S)-butan-2-ylcarbamate]: the Ki on GSK3β (H350L) turned out to be 294 nM; in test [1], 0.27 nM. Consider `CC(C)(C)NC(=O)O[C@@H]1CC[C@H](c2cc(NC(=O)Cc3ccon3)n[nH]2)C1` [Example 17, (1R,3S)-3-{3-[(1,2-oxazol-3-ylacetyl)amino]-1H-pyrazol-5-yl}cyclopentyl tert-butylcarbamate], for which the values for the Ki (at GSK3β (H350L); in test [1]) were 65.8 nM and 0.33 nM, respectively. Regarding `CCCNC(=O)O[C@H]1CC[C@@H](c2cc(NC(=O)Cc3cncs3)n[nH]2)C1` [Example 20], the Ki at GSK3β (H350L) was 27.9 nM; in test [1], 0.21 nM. On the same counts, the results for `CCCNC(=O)O[C@H]1CC[C@@H](c2cc(NC(=O)Cc3ccc(OC)nc3)n[nH]2)C1` [Example 21] are 4.2 nM and 0.25 nM.

Turning to `COc1ccc(CC(=O)Nc2cc([C@@H]3CC[C@H](OC(=O)N4CCC4(C)C)C3)[nH]n2)cn1` [Example 145], the Ki on GSK3β (H350L) came to 0.95 nM. On the same count and under the same terms, to `CC[C@H](C)NC(=O)O[C@@H]1CC[C@H](c2cc(NC(=O)Cc3ccccc3S(C)(=O)=O)n[nH]2)C1` [Example 370, (1R,3S)-3-[3-({[2-(methylsulfonyl)phenyl]acetyl}amino)-1H-pyrazol-5-yl]cyclopentyl (2S)-butan-2-ylcarbamate] belongs 50.8 nM; to `C[C@H]1CCCN1C(=O)O[C@@H]1CC[C@H](c2cc(NC(=O)Cc3ccn(C)n3)n[nH]2)C1` [Example 631, (1R,3S)-3-(3-{[(1-methyl-1H-pyrazol-3-yl)acetyl]amino}-1H-pyrazol-5-yl)cyclopentyl (2S)-2-methylpyrrolidine-1-carboxylate], 11.8 nM.

The values are drawn from patent publication US11014911B2, “CDK2 inhibitors” (Pfizer Inc., priority 2019, dated 2021).
